Assay [1] concerns PC3 cells. The assay can be described thus: XTT assay for cell viability, PC3 cells. Type of assay: cell-based, human. The settings on record: Homo sapiens, PC-3, cell viability. The method, boiled down:
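PC3 cells seeded at 1000 cells/well, grown 24 h, then exposed to serial dilutions of compound for 96 h. Viability read by XTT dye at 37° C, absorbance 465 nm. EC50 from sigmoidal dose-response fit.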
On the technique in general: Tetrazolium dyes change colour on reduction, which living cells bring about.

Assay [2] addresses T1, mTOR kinase (Homo sapiens, UniProt P42345).
T1 construct: purchased Millipore, USA
The assay can be described thus: mTOR kinase TR-FRET assay. Type of assay: biochemical. Conditions: read-out: mTO R. The method, boiled down:
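Compounds preincubated 60 min with mTOR (5 ng) in HEPES pH 7.5, EGTA, MnCl2; ULight-p70 S6K Thr389 peptide (50 nM) and ATP (20 μM) then added, 60 min at room temperature. EDTA-stopped, Eu-anti-phospho antibody detection by TR-FRET (665/615 nm); IC50 from variable-slope sigmoidal fit.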
In general terms: Time-resolved FRET reads energy transfer from a long-lived donor to a nearby acceptor.

Assay [3] deals with T2, PI3Kα (wild-type), P110/P85α (Homo sapiens, UniProt P42336).
T2 construct: made in house; host or cells: SF9 insect cells
As to the kind of experiment: PI3 Kinase TR-FRET assay, PI3Kα (wild-type). It is filed as biochemical. In outline: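 Sf9-expressed His-purified P110/P85α (5 ng) preincubated 60 min RT with compound and PIP2 in buffer with 40 mM MgCl2, 5 mM DTT; reaction started with ATP (PIP2 and ATP both 10 μM), 30 min RT. PIP3 detected by TR-FRET displacement, 665/615 nm ratio; IC50 from dose-response curves.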

Each structure is given as a SMILES string. pIC50: −log10 of the molar value. Bounds are passed on as bounds.

For 21 compounds, IC50 results are on record in patent US9115092B2, “Substituted quinazoline and pyrido-pyrimidine derivatives” (Asana Biosciences, LLC, priority 2010, dated 2015).

T2 sequence (P42336 whole entry): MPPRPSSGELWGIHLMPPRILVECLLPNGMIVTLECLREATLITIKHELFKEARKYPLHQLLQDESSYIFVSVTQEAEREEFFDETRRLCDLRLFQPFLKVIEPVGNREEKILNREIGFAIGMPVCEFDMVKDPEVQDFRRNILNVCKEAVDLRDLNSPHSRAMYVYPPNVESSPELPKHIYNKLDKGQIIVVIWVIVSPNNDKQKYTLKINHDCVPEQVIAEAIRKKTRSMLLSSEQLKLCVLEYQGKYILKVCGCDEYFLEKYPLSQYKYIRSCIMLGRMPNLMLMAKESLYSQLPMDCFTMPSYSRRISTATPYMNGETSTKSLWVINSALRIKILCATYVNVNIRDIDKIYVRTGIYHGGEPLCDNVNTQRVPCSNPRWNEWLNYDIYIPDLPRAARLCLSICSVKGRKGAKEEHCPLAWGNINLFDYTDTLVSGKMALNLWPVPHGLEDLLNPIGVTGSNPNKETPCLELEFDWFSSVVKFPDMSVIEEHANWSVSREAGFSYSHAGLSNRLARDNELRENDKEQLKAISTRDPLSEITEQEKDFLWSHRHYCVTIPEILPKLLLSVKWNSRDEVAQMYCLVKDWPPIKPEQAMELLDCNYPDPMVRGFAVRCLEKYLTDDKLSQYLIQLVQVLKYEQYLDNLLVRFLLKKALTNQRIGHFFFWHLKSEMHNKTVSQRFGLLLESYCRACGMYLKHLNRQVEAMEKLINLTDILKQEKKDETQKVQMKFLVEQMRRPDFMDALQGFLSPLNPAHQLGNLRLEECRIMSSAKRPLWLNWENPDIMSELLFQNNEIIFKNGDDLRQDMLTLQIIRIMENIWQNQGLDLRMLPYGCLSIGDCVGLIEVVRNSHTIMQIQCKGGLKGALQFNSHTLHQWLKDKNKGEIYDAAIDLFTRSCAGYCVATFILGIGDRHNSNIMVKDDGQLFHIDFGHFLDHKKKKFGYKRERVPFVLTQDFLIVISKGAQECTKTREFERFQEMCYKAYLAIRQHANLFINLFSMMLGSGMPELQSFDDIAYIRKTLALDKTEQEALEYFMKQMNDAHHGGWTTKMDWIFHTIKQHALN
T2 sequence (P27986 whole entry partner): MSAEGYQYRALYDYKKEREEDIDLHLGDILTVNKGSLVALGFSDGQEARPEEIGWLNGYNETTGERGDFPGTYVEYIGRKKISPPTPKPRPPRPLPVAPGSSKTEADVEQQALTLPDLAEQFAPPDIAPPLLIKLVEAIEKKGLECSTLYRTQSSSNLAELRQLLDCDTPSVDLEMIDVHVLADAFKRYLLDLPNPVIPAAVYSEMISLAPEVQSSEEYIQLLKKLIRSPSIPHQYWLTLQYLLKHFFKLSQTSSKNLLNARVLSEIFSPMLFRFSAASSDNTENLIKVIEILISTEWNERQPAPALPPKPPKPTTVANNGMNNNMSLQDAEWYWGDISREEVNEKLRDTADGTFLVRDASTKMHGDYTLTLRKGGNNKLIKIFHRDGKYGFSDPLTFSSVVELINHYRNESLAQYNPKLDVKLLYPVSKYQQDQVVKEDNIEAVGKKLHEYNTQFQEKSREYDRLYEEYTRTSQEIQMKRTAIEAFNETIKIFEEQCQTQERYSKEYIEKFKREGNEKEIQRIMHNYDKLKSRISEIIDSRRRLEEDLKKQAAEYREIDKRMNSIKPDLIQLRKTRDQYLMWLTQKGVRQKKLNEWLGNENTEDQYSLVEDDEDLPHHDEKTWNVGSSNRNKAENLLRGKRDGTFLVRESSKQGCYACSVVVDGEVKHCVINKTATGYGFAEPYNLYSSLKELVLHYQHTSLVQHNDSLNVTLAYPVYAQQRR

Take `CN1CCN(C(=O)c2ccc(NC(=O)Nc3ccc(-c4nc(N5CCOCC5)c5ncc(-c6cncnc6)cc5n4)cc3)cc2)CC1` [Example 67, 1-[4-(4-methyl-piperazine-1-carbonyl)-phenyl]-3-[4-(4-morpholin-4-yl-7-pyrimidin-5-yl-pyrido[3,2-d]pyrimidin-2-yl)-phenyl]-urea]: the figures for the pIC50 in assay [1], in assay [2] and in assay [3] were 6.30 to 7.00, more than 7.30 and more than 7.30, respectively.
Consider `CN(C)C(=O)c1ccc(NC(=O)Nc2ccc(-c3nc(N4CCOCC4)c4ccc(-c5cncc(S(C)(=O)=O)c5)cc4n3)cc2)cc1` [Example 34, 4-(3-{4-[7-(5-methanesulfonyl-pyridin-3-yl)-4-morpholin-4-yl-qinazolin-2-yl]-phenyl}-ureido)-N,N-dimethyl-benzamide], for which the pIC50 in assay [1] is more than 7.00; in assay [2] it was more than 7.30; in assay [3] it was more than 7.30.
Turning to `CN(C)C(=O)c1ccc(NC(=O)Nc2ccc(-c3nc(N4CCOCC4)c4ccc(-c5cccnc5F)cc4n3)cc2)cn1` [Example 28, 5-(3-{4-[7-(2-fluoro-pyridin-3-yl)-4-morpholin-4-yl-quinazolin-2-yl]-phenyl}-ureido)-pyridine-2-carboxylic acid dimethylamide], the pIC50 is more than 7.00 in assay [1], more than 7.30 in assay [2] and 6.70 to 7.30 in assay [3].
In the case of `CN(C)C(=O)c1ccc(NC(=O)Nc2ccc(-c3nc(N4CCOCC4)c4ccc(-c5cccnc5)cc4n3)cc2)cc1F` [Example 260, 2-fluoro-N,N-dimethyl-4-(3-(4-(4-morpholino-7-(pyridin-3-yl)quinazolin-2-yl)phenyl)ureido)-benzamide], the pIC50 in assay [1] was 5.00 to 6.70; in assay [2], more than 7.30; in assay [3], more than 7.30.
Turning to `Cc1ccncc1-c1cnc2c(N3CCOCC3)nc(-c3ccc(NC(=O)Nc4ccc(C(=O)N(C)C)cc4)c(F)c3)nc2c1` [Example 116, 4-(3-(2-fluoro-4-(7-(4-methylpyridin-3-yl)-4-morpholino-pyrido[3,2-d]pyrimidin-2-yl)phenyl)ureido)-N,N-dimethyl-benzamide], the pIC50 in assay [1] is 5.30 to 6.30; in assay [2] it was 6.70 to 7.30; in assay [3] it was 6.70 to 7.30.
In the case of `CN(C)C(=O)c1ccc(NC(=O)Nc2ccc(-c3nc(N4CCOCC4)c4ccc(-c5ccoc5)cc4n3)cc2)cc1` [Example 53, 4-{3-[4-(7-furan-3-yl-4-morpholin-4-yl-quinazolin-2-yl)-phenyl]-ureido}-N,N-dimethyl-benzamide], the pIC50 in assay [1] was 6.30 to 7.00; in assay [2], 6.70 to 7.30; in assay [3] it was 6.70 to 7.30.
As to `COc1ccc(-c2ccc3c(N4CCOCC4)nc(-c4ccc(NC(=O)Nc5ccc(C(=O)N(C)C)c(F)c5)cc4)nc3c2)cn1` [Example 259, 2-fluoro-4-(3-(4-(7-(6-methoxypyridin-3-yl)-4-morpholino-quinazolin-2-yl)phenyl)ureido)-N,N-dimethyl-benzamide], the pIC50 in assay [1] is 5.00 to 6.70; in assay [2], more than 7.30; in assay [3] it was 6.70 to 7.30.
The like results for `CN(C)C(=O)c1ccc(NC(=O)Nc2ccc(-c3nc(N4CCOCC4)c4ccc(-c5cccc(S(C)(=O)=O)c5)cc4n3)cc2)cn1` [Example 31, 5-(3-{4-[7-(3-methanesulfonyl-phenyl)-4-morpholin-4-yl-quinazolin-2-yl]-phenyl}-ureido)-pyridine-2-carboxylic acid dimethylamide] were, in that order, 6.30 to 7.00, more than 7.30 and 6.70 to 7.30.
Regarding `Cc1ccc(-c2cnc3c(N4CCOCC4)nc(-c4ccc(NC(=O)Nc5ccc(C(=O)N(C)C)cc5)cc4)nc3c2)o1` [Example 43, N,N-dimethyl-4-(3-{4-[7-(5-methyl-furan-2-yl)-4-morpholin-4-yl-pyrido[3,2-d]pyrimidin-2-yl]-phenyl}-ureido)-benzamide], the results for the pIC50 in assay [1], in assay [2] and in assay [3] were 6.30 to 7.00, more than 7.30 and more than 7.30, respectively.
Regarding `CN(C)C(=O)c1ccc(NC(=O)Nc2ccc(-c3nc(N4CCOCC4)c4ccc(-c5ccncc5)cc4n3)cc2)cc1` [Example 58, N,N-dimethyl-4-{3-[4-(4-morpholin-4-yl-7-pyridin-4-yl-quinazolin-2-yl)-phenyl]-ureido}-benzamide], the pIC50 was 5.30 to 6.30 in assay [1], more than 7.30 in assay [2] and more than 7.30 in assay [3].
In the case of `CN(C)C(=O)c1ccc(NC(=O)Nc2ccc(-c3nc(N4CCOCC4)c4cc(F)c(-c5cncnc5)cc4n3)cc2)cc1` [Example 30, 4-{3-[4-(6-fluoro-4-morpholin-4-yl-7-pyrimidin-5-yl-quinazolin-2-yl)-phenyl]-ureido}-N,N-dimethyl-benzamide], the pIC50 in assay [1] was more than 7.00; in assay [2] it was more than 7.30; in assay [3] it was more than 7.30.
For the compound `Cc1noc(C)c1-c1cc2nc(-c3ccc(NC(=O)Nc4ccc(C(=O)N(C)C)cc4)cc3)nc(N3CCOCC3)c2cc1F` [Example 143, 4-(3-(4-(7-(3,5-dimethylisoxazol-4-yl)-6-fluoro-4-morpholino-quinazolin-2-yl)phenyl)ureido)-N,N-dimethyl-benzamide], the pIC50 in assay [1] was 5.00 to 6.70; in assay [2], more than 7.30; in assay [3], 6.70 to 7.30.
As for `CN(C)C(=O)c1ccc(NC(=O)Nc2ccc(-c3nc(N4CCOCC4)c4ccc(-c5ccnc(F)c5)cc4n3)cc2)cc1` [Example 68, 4-(3-{4-[7-(2-fluoro-pyridin-4-yl)-4-morpholin-4-yl-quinazolin-2-yl]-phenyl}-ureido)-N,N-dimethyl-benzamide], the pIC50 in assay [1] was 5.30 to 6.30; in assay [2], more than 7.30; in assay [3], more than 7.30.
In the case of `CN(C)C(=O)c1ccc(NC(=O)Nc2ccc(-c3nc(N4CCOCC4)c4cc(F)c(-c5cccc(S(C)(=O)=O)c5)cc4n3)cc2)cc1` [Example 36, 4-(3-{4-[6-fluoro-7-(3-methanesulfonyl-phenyl)-4-morpholin-4-yl-quinazolin-2-yl]-phenyl}-ureido)-N,N-dimethyl-benzamide], the pIC50 is more than 7.00 in assay [1], more than 7.30 in assay [2] and more than 7.30 in assay [3].
For `CN(C)C(=O)c1ccc(NC(=O)Nc2ccc(-c3nc(N4CCOCC4)c4ccc(-c5ccco5)cc4n3)cc2)cc1F` [Example 265, 2-fluoro-4-(3-(4-(7-(furan-2-yl)-4-morpholino-quinazolin-2-yl)phenyl)ureido)-N,N-dimethyl-benzamide], the pIC50 was more than 7.00 in assay [1], 6.70 to 7.30 in assay [2] and 6.70 to 7.30 in assay [3].
Consider `CN(C)C(=O)c1ccc(NC(=O)Nc2ccc(-c3nc(N4CCOCC4)c4ccc(-c5cccc(NS(C)(=O)=O)c5)cc4n3)cc2)cc1` [Example 23, 4-(3-{4-[7-(3-methanesulfonylamino-phenyl)-4-morpholin-4-yl-quinazolin-2-yl]-phenyl}-ureido)-N,N-dimethyl-benzamide], for which the pIC50 was 5.30 to 6.30 in assay [1], 6.70 to 7.30 in assay [2] and more than 7.30 in assay [3].
For `CN(C)C(=O)c1ccc(NC(=O)Nc2ccc(-c3nc(N4CCOCC4)c4ccc(-c5ccsc5)cc4n3)cc2)cc1` [Example 52, N,N-dimethyl-4-{3-[4-(4-morpholin-4-yl-7-thiophen-3-yl-quinazolin-2-yl)-phenyl]-ureido}-benzamide], the figures for the pIC50 in assay [1], in assay [2] and in assay [3] were 6.30 to 7.00, 6.70 to 7.30 and more than 7.30, respectively.
For `CN1CCN(C(=O)c2ccc(NC(=O)Nc3ccc(-c4nc(N5CCOCC5)c5ccc(-c6cccnc6F)cc5n4)cc3)cc2)CC1` [Example 26, 1-{4-[7-(2-fluoro-pyridin-3-yl)-4-morpholin-4-yl-quinazolin-2-yl]-phenyl}-3-[4-(4-methyl-piperazine-1-carbonyl)-phenyl]-urea], the pIC50 in assay [1] was more than 7.00; in assay [2], more than 7.30; in assay [3], more than 7.30.
Regarding `CN(C)C(=O)c1ccc(NC(=O)Nc2ccc(-c3nc(N4CCOCC4)c4ccc(-c5cncnc5)cc4n3)c(F)c2F)cc1` [Example 280, 4-(3-(2,3-difluoro-4-(4-morpholino-7-(pyrimidin-5-yl)quinazolin-2-yl)phenyl)ureido)-N,N-dimethyl-benzamide], the pIC50 in assay [1] is more than 7.00; in assay [2], more than 7.30; in assay [3], 6.70 to 7.30.
The matching figures for `CN(C)C(=O)c1ccc(NC(=O)Nc2ccc(-c3nc(N4CCOCC4)c4ncc(-c5cncnc5)cc4n3)c(F)c2)cc1` [Example 250, 4-(3-(3-fluoro-4-(4-morpholino-7-(pyrimidin-5-yl)pyrido[3,2-d]pyrimidin-2-yl)phenyl)ureido)-N,N-dimethyl-benzamide]: 5.00 to 6.70, more than 7.30 and more than 7.30.
The like results for `CN(C)C(=O)c1ccc(NC(=O)Nc2ccc(-c3nc(N4CCOCC4)c4cccc(-c5ccc(F)nc5)c4n3)cc2)cc1` [Example 6, 4-(3-{4-[8-(6-Fluoro-pyridin-3-yl)-4-morpholin-4-yl-quinazolin-2-yl]-phenyl}-ureido)-N,N-dimethyl-benzamide] were, in that order, 6.30 to 7.00, more than 7.30 and 6.70 to 7.30.
